ChEMBL document CHEMBL4270580, “Syntheses of C-ring modified dehydroabietylamides and their cytotoxic activity” (Eur J Med Chem, 2018)
pEC50: −log10 of the molar value.

System: FaDu
Assay: Cytotoxicity against human FADU cells after 96 hrs by sulforhodamine-B assay
Type: functional, cell-based
Details: Homo sapiens, FaDu, 96 h; read-out: EC50

Row | SMILES | pEC50
1 | Cc1ccc(C(=O)NC[C@]2(C)CCC[C@]3(C)c4ccc(C(C)C)cc4CC[C@@H]23)cc1 | 4.72
2 | CC(=O)Oc1cc2c(cc1C(C)C)CC[C@H]1[C@](C)(CNC(=O)c3ccc(C)cc3)CCC[C@]21C | 4.89
3 | CC(C)c1cc2c(cc1O)[C@@]1(C)CCC[C@@](C)(CNC(=O)c3ccc(Cl)cc3)[C@@H]1CC2 | 4.66
4 | CC(=O)Oc1cc2c(cc1C(C)C)CC[C@H]1[C@](C)(CN)CCC[C@]21C | 4.88
5 | CC(C)c1ccc2c(c1)CC[C@H]1[C@](C)(CN)CCC[C@]21C | 5.41
6 | C=C(C)[C@@H]1CC[C@]2(C(=O)O)CC[C@]3(C)[C@H](CC[C@@H]4[C@@]5(C)CC[C@H](O)C(C)(C)[C@@H]5CC[C@]43C)[C@@H]12 [BETULINIC ACID] | 4.97

Same assay, conditions: fadu

Row | SMILES | EC50
7 | COc1ccc(C(=O)NC[C@]2(C)CCC[C@]3(C)c4cc(OC(C)=O)c(C(C)C)cc4CC[C@@H]23)cc1 | Nd(Insoluble)

System: A2780
Assay: Cytotoxicity against human A2780 cells after 96 hrs by sulforhodamine-B assay
Type: functional, cell-based
Details: Homo sapiens, A2780, 96 h; read-out: EC50

Row | SMILES | pEC50
8 | Cc1ccc(C(=O)NC[C@]2(C)CCC[C@]3(C)c4ccc(C(C)C)cc4CC[C@@H]23)cc1 | 4.90
9 | CC(=O)Oc1cc2c(cc1C(C)C)CC[C@H]1[C@](C)(CNC(=O)c3ccc(C)cc3)CCC[C@]21C | 4.71
10 | CC(C)c1cc2c(cc1O)[C@@]1(C)CCC[C@@](C)(CNC(=O)c3ccc(Cl)cc3)[C@@H]1CC2 | 5.18
11 | CC(=O)Oc1cc2c(cc1C(C)C)CC[C@H]1[C@](C)(CN)CCC[C@]21C | 4.70
12 | CC(C)c1ccc2c(c1)CC[C@H]1[C@](C)(CN)CCC[C@]21C | 5.42
13 | C=C(C)[C@@H]1CC[C@]2(C(=O)O)CC[C@]3(C)[C@H](CC[C@@H]4[C@@]5(C)CC[C@H](O)C(C)(C)[C@@H]5CC[C@]43C)[C@@H]12 [BETULINIC ACID] | 5.01

Same assay, conditions: a2780

Row | SMILES | EC50
14 | COc1ccc(C(=O)NC[C@]2(C)CCC[C@]3(C)c4cc(OC(C)=O)c(C(C)C)cc4CC[C@@H]23)cc1 | Nd(Insoluble)

System: HT-29
Assay: Cytotoxicity against human HT-29 cells after 96 hrs by sulforhodamine-B assay
Type: functional, cell-based
Details: Homo sapiens, HT-29, 96 h; read-out: EC50

Row | SMILES | pEC50
15 | Cc1ccc(C(=O)NC[C@]2(C)CCC[C@]3(C)c4ccc(C(C)C)cc4CC[C@@H]23)cc1 | 4.64
16 | CC(=O)Oc1cc2c(cc1C(C)C)CC[C@H]1[C@](C)(CNC(=O)c3ccc(C)cc3)CCC[C@]21C | 4.57
17 | CC(C)c1cc2c(cc1O)[C@@]1(C)CCC[C@@](C)(CNC(=O)c3ccc(Cl)cc3)[C@@H]1CC2 | 4.98
18 | CC(=O)Oc1cc2c(cc1C(C)C)CC[C@H]1[C@](C)(CN)CCC[C@]21C | 5.00
19 | CC(C)c1ccc2c(c1)CC[C@H]1[C@](C)(CN)CCC[C@]21C | 5.68
20 | C=C(C)[C@@H]1CC[C@]2(C(=O)O)CC[C@]3(C)[C@H](CC[C@@H]4[C@@]5(C)CC[C@H](O)C(C)(C)[C@@H]5CC[C@]43C)[C@@H]12 [BETULINIC ACID] | 4.80

Same assay, conditions: ht-29

Row | SMILES | EC50
21 | COc1ccc(C(=O)NC[C@]2(C)CCC[C@]3(C)c4cc(OC(C)=O)c(C(C)C)cc4CC[C@@H]23)cc1 | Nd(Insoluble)

System: MCF7
Assay: Cytotoxicity against human MCF7 cells after 96 hrs by sulforhodamine-B assay
Type: functional, cell-based
Details: Homo sapiens, MCF7, 96 h; read-out: EC50

Row | SMILES | pEC50
22 | Cc1ccc(C(=O)NC[C@]2(C)CCC[C@]3(C)c4ccc(C(C)C)cc4CC[C@@H]23)cc1 | 4.98
23 | CC(=O)Oc1cc2c(cc1C(C)C)CC[C@H]1[C@](C)(CNC(=O)c3ccc(C)cc3)CCC[C@]21C | 4.94
24 | CC(C)c1cc2c(cc1O)[C@@]1(C)CCC[C@@](C)(CNC(=O)c3ccc(Cl)cc3)[C@@H]1CC2 | 5.30
25 | CC(=O)Oc1cc2c(cc1C(C)C)CC[C@H]1[C@](C)(CN)CCC[C@]21C | 4.97
26 | CC(C)c1ccc2c(c1)CC[C@H]1[C@](C)(CN)CCC[C@]21C | 5.52
27 | C=C(C)[C@@H]1CC[C@]2(C(=O)O)CC[C@]3(C)[C@H](CC[C@@H]4[C@@]5(C)CC[C@H](O)C(C)(C)[C@@H]5CC[C@]43C)[C@@H]12 [BETULINIC ACID] | 4.97

Same assay, conditions: mcf7

Row | SMILES | EC50
28 | COc1ccc(C(=O)NC[C@]2(C)CCC[C@]3(C)c4cc(OC(C)=O)c(C(C)C)cc4CC[C@@H]23)cc1 | Nd(Insoluble)

System: SW-1736
Assay: Cytotoxicity against human SW1736 cells after 96 hrs by sulforhodamine-B assay
Type: functional, cell-based
Details: Homo sapiens, SW-1736, 96 h; read-out: EC50

Row | SMILES | pEC50
29 | Cc1ccc(C(=O)NC[C@]2(C)CCC[C@]3(C)c4ccc(C(C)C)cc4CC[C@@H]23)cc1 | 4.85
30 | CC(=O)Oc1cc2c(cc1C(C)C)CC[C@H]1[C@](C)(CNC(=O)c3ccc(C)cc3)CCC[C@]21C | 4.97
31 | CC(C)c1cc2c(cc1O)[C@@]1(C)CCC[C@@](C)(CNC(=O)c3ccc(Cl)cc3)[C@@H]1CC2 | 4.99
32 | CC(=O)Oc1cc2c(cc1C(C)C)CC[C@H]1[C@](C)(CN)CCC[C@]21C | 4.74
33 | CC(C)c1ccc2c(c1)CC[C@H]1[C@](C)(CN)CCC[C@]21C | 5.38
34 | C=C(C)[C@@H]1CC[C@]2(C(=O)O)CC[C@]3(C)[C@H](CC[C@@H]4[C@@]5(C)CC[C@H](O)C(C)(C)[C@@H]5CC[C@]43C)[C@@H]12 [BETULINIC ACID] | 4.83

Same assay, conditions: sw-1736

Row | SMILES | EC50
35 | COc1ccc(C(=O)NC[C@]2(C)CCC[C@]3(C)c4cc(OC(C)=O)c(C(C)C)cc4CC[C@@H]23)cc1 | Nd(Insoluble)

System: NIH3T3
Assay: Cytotoxicity against mouse NIH/3T3 cells after 96 hrs by sulforhodamine-B assay
Type: cell-based
Details: Mus musculus, NIH3T3, 96 h; read-out: EC50

Row | SMILES | pEC50
36 | Cc1ccc(C(=O)NC[C@]2(C)CCC[C@]3(C)c4ccc(C(C)C)cc4CC[C@@H]23)cc1 | 4.87
37 | CC(=O)Oc1cc2c(cc1C(C)C)CC[C@H]1[C@](C)(CNC(=O)c3ccc(C)cc3)CCC[C@]21C | < 4.52
38 | CC(C)c1cc2c(cc1O)[C@@]1(C)CCC[C@@](C)(CNC(=O)c3ccc(Cl)cc3)[C@@H]1CC2 | 4.80
39 | CC(=O)Oc1cc2c(cc1C(C)C)CC[C@H]1[C@](C)(CN)CCC[C@]21C | < 4.52
40 | CC(C)c1ccc2c(c1)CC[C@H]1[C@](C)(CN)CCC[C@]21C | 5.62
41 | C=C(C)[C@@H]1CC[C@]2(C(=O)O)CC[C@]3(C)[C@H](CC[C@@H]4[C@@]5(C)CC[C@H](O)C(C)(C)[C@@H]5CC[C@]43C)[C@@H]12 [BETULINIC ACID] | 4.89

Same assay, conditions: nih3t3

Row | SMILES | EC50
42 | COc1ccc(C(=O)NC[C@]2(C)CCC[C@]3(C)c4cc(OC(C)=O)c(C(C)C)cc4CC[C@@H]23)cc1 | Nd(Insoluble)

System: not listed separately
Assay: Selectivity index, ratio of EC50 for mouse NIH/3T3 cells to EC50 for human MCF7 cells
Type: toxicity
Details: NIH/3T3 cells and MCF7 cells, read-out: Ratio EC50

Row | SMILES | selectivity ratio
43 | CC(C)c1ccc2c(c1)CC[C@H]1[C@](C)(CN)CCC[C@]21C | 0.8
